One assay has as its target T1, human GLP-2 receptor (Homo sapiens, UniProt O95838).
T1 construct: host or cells: COS-7 (transient, calcium phosphate; pCMV-Script vector)
T1 sequence (O95838 1-553): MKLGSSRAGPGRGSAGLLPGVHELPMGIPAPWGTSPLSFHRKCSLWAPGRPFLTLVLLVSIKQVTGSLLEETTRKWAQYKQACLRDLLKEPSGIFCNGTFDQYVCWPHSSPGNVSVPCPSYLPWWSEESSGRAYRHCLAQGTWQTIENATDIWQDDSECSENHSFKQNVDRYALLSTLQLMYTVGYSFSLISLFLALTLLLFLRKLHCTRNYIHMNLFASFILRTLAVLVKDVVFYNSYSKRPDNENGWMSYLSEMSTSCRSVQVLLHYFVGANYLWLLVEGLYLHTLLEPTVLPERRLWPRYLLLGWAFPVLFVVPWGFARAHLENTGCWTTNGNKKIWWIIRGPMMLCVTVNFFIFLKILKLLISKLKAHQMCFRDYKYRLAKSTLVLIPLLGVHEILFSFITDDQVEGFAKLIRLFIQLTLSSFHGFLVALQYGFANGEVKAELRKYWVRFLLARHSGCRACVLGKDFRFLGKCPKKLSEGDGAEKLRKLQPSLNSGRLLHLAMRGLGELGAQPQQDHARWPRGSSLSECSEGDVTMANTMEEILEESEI
Description: cAMP accumulation assay (HitHunter cAMP XS) in transiently transfected COS-7 cells expressing the human GLP-2 receptor. The conditions noted are these: for Emax at 10 µM: COS-7, read-out: Emax (10 μM), GLP-2 receptor; for fold (fold change of native GLP-2), GLP-2 receptor: EC50 relative to native GLP-2. Format: cell-based. On the procedure:
(§1) The day after, the cells were washed twice with Hepes buffered saline (HBS) buffer and incubated with HBS and 1 mM 3-isobutyl-1-methylxanthine (IBMX) for 30 min at 37° C. Ligands were added and incubated for 30 min at 37° C. The HitHunter™ cAMP XS assay (DiscoveRx) was carried out according to the manufacturer's instructions.

A further assay addresses T2, human GIP receptor (Homo sapiens, UniProt P48546).
T2 construct: host or cells: COS-7 (transient, calcium phosphate; pCMV-Script vector)
T2 sequence (P48546 22-466): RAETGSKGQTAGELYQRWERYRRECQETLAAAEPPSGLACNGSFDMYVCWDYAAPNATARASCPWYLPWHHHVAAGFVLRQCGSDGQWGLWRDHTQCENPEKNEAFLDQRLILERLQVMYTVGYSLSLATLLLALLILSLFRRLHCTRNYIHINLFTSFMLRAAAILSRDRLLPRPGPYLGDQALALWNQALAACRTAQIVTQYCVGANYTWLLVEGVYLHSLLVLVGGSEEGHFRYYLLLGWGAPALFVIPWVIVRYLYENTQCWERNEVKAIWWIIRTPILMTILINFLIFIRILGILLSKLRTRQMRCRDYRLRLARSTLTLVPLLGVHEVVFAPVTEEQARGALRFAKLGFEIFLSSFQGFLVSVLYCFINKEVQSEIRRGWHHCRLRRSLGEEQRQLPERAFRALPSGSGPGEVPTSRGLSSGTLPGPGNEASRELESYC
Kind of assay: cAMP accumulation assay (HitHunter cAMP XS) in transiently transfected COS-7 cells expressing the human GIP receptor. To be noted: for Emax at 10 µM: COS-7, read-out: Emax (10 μM), GIP receptor; for fold (fold change of native GIP), GIP receptor: EC50 relative to native GIP; for EC50: logEC50, GIP receptor, log value, cAMP, COS-7. The format is cell-based. The method, then:
as §1
(Cyclic AMP is a second messenger, typically raised through Gs and lowered through Gi signalling.)

[1] abbreviates: logEC50, GLP-2 receptor, Table 1, cAMP, COS-7.
Setting [2] is: logEC50, GLP-2 receptor, Table 2, cAMP, COS-7.

Like-named read-outs stand apart in the source and are kept apart here. Ends that are not written are not given here. Peptide text beside a SMILES is read from it. * marks the point of attachment. Palmitoyl = CCCCCCCCCCCCCCCC(=O)*

What is called Emax is the greatest response seen or fitted, relative to the assay's reference. A word on the EC50: it is the concentration that produces a half-maximal response. High values mean lower potency in that assay, low ones higher potency in that assay. Regarding “HGDGTFISDYSTILDNLAARDFINWLIQTKITD [Co-agonist 11]”, the maximum response (Emax) at 10 µM on human GLP-2 receptor worked out at 87%; on human GIP receptor, 95%. Moreover, the “fold (fold change of native GLP-2), GLP-2 receptor” value on human GLP-2 receptor (Table 1) turned out to be 20 fold. Further, the EC50 on human GLP-2 receptor (setting [1]) was 24 nM; on human GIP receptor (Table 1) it was 3.16 nM. The “fold (fold change of native GIP), GIP receptor” value (shortened to “fold (fold change of native GIP)”) on human GIP receptor (Table 1) is listed as 36 fold.

Regarding `CCCCCCCCCCCC(=O)NCCCC[C@H](NC(=O)CNC(=O)[C@H](CCCCN)NC(=O)[C@@H](NC(=O)[C@H](CCC(N)=O)NC(=O)[C@@H](NC(=O)[C@H](CC(C)C)NC(=O)[C@H](Cc1c[nH]c2ccccc12)NC(=O)[C@H](CC(N)=O)NC(=O)[C@@H](NC(=O)[C@H](Cc1ccccc1)NC(=O)[C@H](CC(=O)O)NC(=O)[C@H](CCCNC(=N)N)NC(=O)[C@H](C)NC(=O)[C@H](C)NC(=O)[C@H](CC(C)C)NC(=O)[C@H](CC(N)=O)NC(=O)[C@H](CC(=O)O)NC(=O)[C@H](CC(C)C)NC(=O)[C@@H](NC(=O)[C@@H](NC(=O)[C@H](CO)NC(=O)[C@H](Cc1ccc(O)cc1)NC(=O)[C@H](CC(=O)O)NC(=O)[C@H](CO)NC(=O)[C@@H](NC(=O)[C@H](Cc1ccccc1)NC(=O)[C@@H](NC(=O)CNC(=O)[C@H](CC(=O)O)NC(=O)[C@H](C)NC(=O)[C@@H](N)Cc1c[nH]cn1)[C@@H](C)O)[C@@H](C)CC)[C@@H](C)O)[C@@H](C)CC)[C@@H](C)CC)[C@@H](C)CC)[C@@H](C)O)C(=O)N[C@@H](CCCCN)C(=O)O` [Co-agonist 35], the maximal response (Emax) at 10 µM amounted to 68% on human GLP-2 receptor and 99% at human GIP receptor. For the same molecule, the “fold (fold change of native GLP-2), GLP-2 receptor” value at human GLP-2 receptor (Table 2) is 1.9 fold. Further, the EC50 at human GLP-2 receptor (setting [2]) is 2.34 nM. Further, the “fold (fold change of native GIP)” value on human GIP receptor (Table 2) is on record as 5.4 fold.

Turning to “HADGTFISEYSTILDNLAARDFINWLIQTKITD [Co-agonist 15]”, the figures for the maximal response (Emax) at 10 µM at human GLP-2 receptor and at human GIP receptor were 104% and 92%, respectively. Besides, at human GLP-2 receptor (Table 1), the “fold (fold change of native GLP-2), GLP-2 receptor” value is given as 5.6 fold. Moreover, the “fold (fold change of native GIP)” value at human GIP receptor (Table 1) is listed as 36 fold. Moreover, the response on human GIP receptor (Table 1) was half-maximal at 3.16 nM (EC50).

In the case of “HADGTFISDYSTILDNLAARDFINWLIQTKGKKNDWKHNITQ [Co-agonist 34]”, the Emax at 10 µM on human GLP-2 receptor amounted to 94%; on human GIP receptor, 100%. In addition, the half-maximal effective concentration (EC50) at human GLP-2 receptor (setting [2]) was 1.15 nM.

“HADGTFISDYSTILDNLAARDFINWLIQTKIKD [Co-agonist 17]”: the Emax at 10 µM at human GLP-2 receptor stood at 88%; at human GIP receptor, 95%. Also, the “fold (fold change of native GLP-2), GLP-2 receptor” value on human GLP-2 receptor (Table 1) came to 21 fold. A half-maximal effect at human GLP-2 receptor (setting [1]) (EC50) was put at 24.5 nM. At human GIP receptor (Table 1), the “fold (fold change of native GIP)” value turned out to be 4.5 fold.

Take `CCCCCCCCCCCCCCCC(=O)NCCCC[C@H](NC(=O)[C@@H](NC(=O)[C@H](CCC(N)=O)NC(=O)[C@@H](NC(=O)[C@H](CC(C)C)NC(=O)[C@H](Cc1c[nH]c2ccccc12)NC(=O)[C@H](CC(N)=O)NC(=O)[C@@H](NC(=O)[C@H](Cc1ccccc1)NC(=O)[C@H](CC(=O)O)NC(=O)[C@H](CCCNC(=N)N)NC(=O)[C@H](C)NC(=O)[C@H](C)NC(=O)[C@H](CC(C)C)NC(=O)[C@H](CC(N)=O)NC(=O)[C@H](CC(=O)O)NC(=O)[C@H](CC(C)C)NC(=O)[C@@H](NC(=O)[C@@H](NC(=O)[C@H](CO)NC(=O)[C@H](Cc1ccc(O)cc1)NC(=O)[C@H](CC(=O)O)NC(=O)[C@H](CO)NC(=O)[C@@H](NC(=O)[C@H](Cc1ccccc1)NC(=O)[C@@H](NC(=O)CNC(=O)[C@H](CC(=O)O)NC(=O)[C@H](C)NC(=O)[C@@H](N)Cc1c[nH]cn1)[C@@H](C)O)[C@@H](C)CC)[C@@H](C)O)[C@@H](C)CC)[C@@H](C)CC)[C@@H](C)CC)[C@@H](C)O)C(=O)N[C@H](C(=O)N[C@H](C(=O)N[C@@H](CCCCN)C(=O)O)[C@@H](C)O)[C@@H](C)CC` [Co-agonist 31]: the maximal response (Emax) at 10 µM on human GLP-2 receptor and at human GIP receptor was 91% throughout. Moreover, the “fold (fold change of native GLP-2), GLP-2 receptor” value on human GLP-2 receptor (Table 2) worked out at 89 fold. Besides, the “fold (fold change of native GIP)” value at human GIP receptor (Table 2) stood at 19 fold.

Regarding `CCCCCCCCCCCCCCCC(=O)NCCCC[C@H](NC(=O)[C@H](C)NC(=O)[C@H](C)NC(=O)[C@H](CC(C)C)NC(=O)[C@H](CC(N)=O)NC(=O)[C@H](CC(=O)O)NC(=O)[C@H](CC(C)C)NC(=O)[C@@H](NC(=O)[C@@H](NC(=O)[C@H](CO)NC(=O)[C@H](Cc1ccc(O)cc1)NC(=O)[C@H](CC(=O)O)NC(=O)[C@H](CO)NC(=O)[C@H](CO)NC(=O)[C@H](Cc1ccccc1)NC(=O)[C@@H](NC(=O)CNC(=O)[C@H](CC(=O)O)NC(=O)[C@H](C)NC(=O)[C@@H](N)Cc1c[nH]cn1)[C@@H](C)O)[C@@H](C)O)[C@@H](C)CC)C(=O)N[C@@H](CC(=O)O)C(=O)N[C@@H](Cc1ccccc1)C(=O)N[C@H](C(=O)N[C@@H](CC(N)=O)C(=O)N[C@@H](Cc1c[nH]c2ccccc12)C(=O)N[C@@H](CC(C)C)C(=O)N[C@H](C(=O)N[C@@H](CCC(N)=O)C(=O)N[C@H](C(=O)N[C@@H](CCCCN)C(=O)N[C@H](C(=O)N[C@H](C(=O)N[C@@H](CC(=O)O)C(=O)O)[C@@H](C)O)[C@@H](C)CC)[C@@H](C)O)[C@@H](C)CC)[C@@H](C)CC` [Co-agonist 21] (H-HADGTFSSDYSTILDNLAAK(Palmitoyl)DFINWLIQTKITD-OH; N-terminus and C-terminus assumed), on human GLP-2 receptor, the Emax at 10 µM came out at 75%. In addition, the “fold (fold change of native GLP-2), GLP-2 receptor” value at human GLP-2 receptor (Table 2) is 5.0 fold. Besides, the Emax at 10 µM on human GIP receptor was found to be 94%. On human GIP receptor (Table 2), the “fold (fold change of native GIP)” value came to 381 fold and the midpoint of the response, the EC50, lay at 33.9 nM.

On to “HAEGTFISDYSTILDNIHQQDFINWLIQTKITD [Co-agonist 8]”, for which, on human GLP-2 receptor, the concentration giving a half-maximal response (EC50) is greater than 10000 nM and the maximum response (Emax) at 10 µM came out at 22%. Moreover, on human GIP receptor, the maximal response (Emax) at 10 µM amounted to 100%. Moreover, the “fold (fold change of native GIP)” value on human GIP receptor (Table 1) is 66 fold.

As to `CCCCCCCCCCCCCCCC(=O)NCCCC[C@H](NC(=O)[C@@H](NC(=O)[C@H](CCC(N)=O)NC(=O)[C@@H](NC(=O)[C@H](CC(C)C)NC(=O)[C@H](Cc1c[nH]c2ccccc12)NC(=O)[C@H](CC(N)=O)NC(=O)[C@@H](NC(=O)[C@H](Cc1ccccc1)NC(=O)[C@H](CC(=O)O)NC(=O)[C@H](CCCNC(=N)N)NC(=O)[C@H](C)NC(=O)[C@H](C)NC(=O)[C@H](CC(C)C)NC(=O)[C@H](CC(N)=O)NC(=O)[C@H](CC(=O)O)NC(=O)[C@H](CC(C)C)NC(=O)[C@@H](NC(=O)[C@@H](NC(=O)[C@H](CO)NC(=O)[C@H](Cc1ccc(O)cc1)NC(=O)[C@H](CC(=O)O)NC(=O)[C@H](CO)NC(=O)[C@H](CO)NC(=O)[C@H](Cc1ccccc1)NC(=O)[C@@H](NC(=O)CNC(=O)[C@H](CC(=O)O)NC(=O)[C@H](C)NC(=O)[C@@H](N)Cc1c[nH]cn1)[C@@H](C)O)[C@@H](C)O)[C@@H](C)CC)[C@@H](C)CC)[C@@H](C)CC)[C@@H](C)O)C(=O)N[C@H](C(=O)N[C@H](C(=O)N[C@@H](CC(=O)O)C(=O)O)[C@@H](C)O)[C@@H](C)CC` [Co-agonist 23] (H-HADGTFSSDYSTILDNLAARDFINWLIQTK(Palmitoyl)ITD-OH; N-terminus and C-terminus assumed), the maximum response (Emax) at 10 µM on human GLP-2 receptor was found to be 57%; on human GIP receptor, 81%. On human GLP-2 receptor (Table 2), the “fold (fold change of native GLP-2), GLP-2 receptor” value was 1.2 fold. This molecule gave a concentration for a half-maximal effect (EC50) on human GLP-2 receptor (setting [2]) of 1.41 nM. Moreover, the “fold (fold change of native GIP)” value at human GIP receptor (Table 2) stood at 8.5 fold.

The record behind these values is patent publication US11725037B2, “Peptide dual agonists of GIPR and GLP2R” (University of Copenhagen, priority 2017, dated 2023).
